Columns and labels:
[1] = stability of tagged material in solution; type: physicochemical; conditions: one gram per 10 cc of normal saline
From the text: The tagged material was stable in a solution comprising one gram per 10 cc of normal saline. The solution was given orally as a 10 cc dose. […] A good analogy would be the stars at night vs. the stars during the day. The stars are there in both instances. However, the sky is so bright during the day that star-light is simply lost in the background. […] The potassium salt used for imaging ulcers in Example III can be replaced by other cations compatible in the human body including alkali metal and alkaline earth metal cations such as sodium and calcium.

[2] = test system: pepsin; conditions: cited from earlier work
[3] = test system: duodenal ulcers; conditions: several clinical trials; cited from earlier work
[4] = test system: duodenal and gastric ulcers, gastric erosions, mucosa; conditions: cited from earlier work

Substance	stability in solution [1]	inhibition of the action of pepsin [2]	safety and efficacy in healing duodenal ulcers [3]	binding to ulcerated areas in the upper G. I. tract ([4]; FDA approved drug)	duration of action ([4]; animal data)	binding to uninjured mucosa ([4]; compared with defective mucosa)	binding to duodenal and gastric ulcers and to gastric erosions ([4]; erosions produced by ethanol and anti-inflammatory drugs)
potassium sucrose sulfate [Tc-99m labeled potassium sucrose sulfate]	stable						
Sucralfate		inhibits the action of pepsin	shown the safety and efficacy	bind selectively to ulcerated areas	sustained	to a much lesser extent	binds to duodenal and gastric ulcers and to gastric erosions

Reference: patent publication US4851209A, “Diagnostic procedures using radio labeled sucralfate and derivatives or precursors thereof” (The Regents of the University of California, priority 1985, dated 1989)
